Test results published in patent US5840918A, “Isoprenyl transferase inhibitors” (Eisai Co., Ltd., priority 1997, dated 1998).

Legend:
FTase = molecular target: T1, FTase (Bos taurus, UniProt P29702+P49355); assay: Inhibition of FTase-mediated prenylation (in vitro prenylation assay); type: biochemical; details: Table 1; partially purified FTase, 3 μM recombinant H-ras, 440 nM [3H]FPP, 15 min 37° C
T1 construct: bovine brain by inference from the cited Moores et al. 1991
Source text: (§1) Nanomolar concentrations of the indicated compounds were sufficient to inhibit farnesylation of ras proteins in vitro. For screening candidate compounds useful for the treatment of ras-associated tumors, the FTase assay is preferred. […] Substitutions which confer GGTase specificity as taught herein also produced potent inhibitors of GGTase.

GGTase = assay: Inhibition of GGTase-mediated prenylation (in vitro prenylation assay); type: biochemical; details: Table 1; partially purified GGTase, 5 μM recombinant H-ras (61L, CAIL), 1 μM [3H] geranylgeranyl diphosphate
Source text: as §1

[1] = system: H-ras farnesylation in H-ras (61L) transformed NIH3T3 fibroblasts; assay: Inhibition of H-ras farnesylation in whole cells (Western blot); type: cell-based, mouse
Description: The ability of compounds of the invention to inhibit H-ras farnesylation and rap1 geranylgeranylation in whole cells was determined. H-ras (61L) transformed NIH3T3 fibroblasts were generously provided by C. Der, Univ. N. Carolina. These fibroblasts were treated for 24 h with 50 μM lovastatin (control) or the indicated concentrations of inhibitor. The cells were lysed in 1% NP-40, 5 mM Tris-HCl (pH 8.0), 5 mM EDTA, 0.1 mM N-tosyl-L-phenylalanine chloromethyl ketone, 0.1 mM N-tosyl-L-lysine chloromethyl ketone, and 1 mM phenylmethylsulfonyl fluoride. The lysate was centrifuged (15000×g, 5 min.) and the supernatant was used as a cell extract. […] After transfer to IMMOBILON P™ membrane (Millipore), the blots were probed with LA069 mouse monoclonal antibody to H-ras (Quality Biotech), or rabbit polyclonal antibody to rap1/Krev (Santa Cruz Biotechnology). All Western blots were developed using ECL chemiluminescent reagents (Amersham).

[2] = Mus musculus, NIH3T3, 24 h, Table 2

Compound `CSCCC(NC(=O)C(/C=C\[C@@H](/C=C/C(N)CS)C(C)C)C(C)C)C(=O)O` (some centres unmarked) [PD122] has an IC50 (FTase) of 0.003 µM, an IC50 (GGTase) of 0.01 µM and an IC50 [1, 2] of 0.4 µM.

Work on `C=Cc1ccc(C/C=C/C(N)CS)cc1C(=O)N[C@@H](CCSC)C(=O)O` (some centres unmarked) [PM012] yielded an IC50 (FTase) of 0.002 µM, an IC50 (GGTase) of 0.52 µM and an IC50 [1, 2] of 2.7 µM.

With `COC(=O)[C@H](CCSC)NC(=O)c1cc(CCCC(N)CS)ccc1-c1ccsc1` (some centres unmarked) [PM132] the IC50 (FTase) was 0.119 µM, the IC50 (GGTase) was 1.63 µM and the IC50 [1, 2] was 1.6 µM.

`CCOC(=O)[C@H](CCSC)NC(=O)c1cc(C/C=C/C(N)CS)ccc1-c1ccccc1` (some centres unmarked) [PM151] gave an IC50 (FTase) of 0.605 µM, an IC50 (GGTase) of 3.87 µM and an IC50 [1, 2] of 2.9 µM.

Compound `COC(=O)[C@H](CCSC)NCc1cc(C/C=C/[C@@H](N)CS)ccc1-c1ccccc1` [PM031] has an IC50 (FTase) of 0.115 µM, an IC50 (GGTase) of 1.4 µM and an IC50 [1, 2] of 25 µM.

Work on `CSCC[C@H](NC(=O)C(/C=C/[C@H](C)/C=C/C(N)CS)Cc1ccccc1)C(=O)O` (some centres unmarked) [PD441] yielded an IC50 (FTase) of 0.026 µM, an IC50 (GGTase) of 0.17 µM and an IC50 [1, 2] of 4.2 µM.

For `COC(=O)[C@H](CCS(C)(=O)=O)NC(=O)C(Cc1ccccc1)OC[C@@H](/C=C/C(N)CS)C(C)C` (some centres unmarked) [PE061], the IC50 (FTase) was 0.06 µM, the IC50 (GGTase) was 6.3 µM and the IC50 [1, 2] was 1.1 µM.

For `CSCC[C@H](NCc1cc(C/C=C/C(N)CS)ccc1-c1ccccc1)C(=O)O` (some centres unmarked) [PM121], the IC50 (FTase) was 0.022 µM, the IC50 (GGTase) was 1.72 µM and the IC50 [1, 2] was 23.4 µM.

With `CSCCC(NC(=O)C(Cc1ccccc1)OCC(C=CC(N)CSSCC(N)C=CC(COC(Cc1ccccc1)C(=O)NC(CCSC)C(=O)O)C(C)C)C(C)C)C(=O)O` (centres unmarked) [PE041] the IC50 (FTase) was 0.027 µM, the IC50 (GGTase) was 0.16 µM and the IC50 [1, 2] was 0.19 µM.

With `C[C@H](/C=C/C(N)CS)/C=C/C(Cc1ccccc1)C(=O)N[C@@H](CCC(N)=O)C(=O)O` (some centres unmarked) [PD102] the IC50 (FTase) was 0.394 µM and the IC50 ([1]; Table 2, 24 h) was 75 µM.

Work on `CS(=O)(=O)CC[C@H](NC(=O)c1cc(C/C=C/C(N)CS)ccc1-c1ccccc1)C(=O)O` (some centres unmarked) [PM161] yielded an IC50 (FTase) of 0.0009 µM, an IC50 (GGTase) of 2.14 µM and an IC50 [1, 2] of 18.9 µM.

`CSCC[C@H](NC(=O)c1cc(CCCC(N)CS)ccc1-c1ccsc1)C(=O)O` (some centres unmarked) [PM162] gave an IC50 (FTase) of 0.0018 µM, an IC50 (GGTase) of 0.12 µM and an IC50 [1, 2] of 13.1 µM.

Work on `CC(C)C[C@H](NC(=O)c1cc(C/C=C/C(N)CS)ccc1-c1ccccc1)C(=O)O` (some centres unmarked) [PM131] yielded an IC50 (FTase) of 0.605 µM, an IC50 (GGTase) of 0.0024 µM and an IC50 [1, 2] greater than 250 µM.

In the case of `COC(=O)[C@H](Cc1cccs1)NC(=O)c1cc(C/C=C/C(N)CS)ccc1-c1ccsc1` (some centres unmarked) [PM092], the IC50 (FTase) is reported as 0.215 µM, the IC50 (GGTase) is reported as 3.5 µM and the IC50 [1, 2] is reported as 2.7 µM.

Compound `CSCCC(NC(=O)C(/C=C\[C@@H](/C=C/C1CSC(C)(C)N1)C(C)C)Cc1ccccc1)C(=O)O` (some centres unmarked) [PD321] has an IC50 (FTase) of 0.025 µM, an IC50 (GGTase) of 0.014 µM and an IC50 [1, 2] of 0.1 to 1 µM.

`CC[C@H](C)[C@H](NC[C@@H](/C=C/C(N)CS)C(C)C)C(=O)N[C@@H](CCSC)C(=O)OC` (some centres unmarked) [PA141] gave an IC50 (FTase) of 0.095 µM, an IC50 (GGTase) of 0.88 µM and an IC50 [1, 2] of 0.017 µM.

With `CC(C)[C@H](/C=C/C(N)CS)COC(Cc1ccccc1)C(=O)N[C@@H](CCS(C)(=O)=O)C(=O)O` (some centres unmarked) [PE031] the IC50 (FTase) was 0.02 µM, the IC50 (GGTase) was 0.14 µM and the IC50 [1, 2] was 0.33 µM.

In the case of `CSCC[C@H](NC(=O)C(/C=C/[C@@H](/C=C/C(N)CS)C(C)(C)C)Cc1ccccc1)C(=O)O` (some centres unmarked) [PD182], the IC50 (FTase) is reported as less than 0.001 µM, the IC50 (GGTase) is reported as 0.0633 µM and the IC50 ([1]; Table 2, 24 h) is reported as 2.8 µM.

In the case of `COc1ccccc1-c1ccc(C/C=C/C(N)CS)cc1C(=O)N[C@@H](CCSC)C(=O)O` (some centres unmarked) [PM142], the IC50 (FTase) is reported as 0.008 µM, the IC50 (GGTase) is reported as 0.072 µM and the IC50 [1, 2] is reported as 1.1 µM.

`CSCC[C@H](NC(=O)C(/C=C/[C@@H](/C=C/C(N)CS)C(C)C)C(C)C)C(N)=O` (some centres unmarked) [PD042] gave an IC50 (FTase) of 0.005 µM, an IC50 (GGTase) of 1.62 µM and an IC50 [1, 2] of 1.95 µM.

`COC(=O)[C@H](CCSC)N(C)C(=O)C(/C=C\[C@@H](/C=C/C(N)CS)C(C)C)Cc1ccccc1` (some centres unmarked) [PD451] showed an IC50 (FTase) of 0.146 µM, an IC50 (GGTase) of 1.11 µM and an IC50 [1, 2] of 0.4 µM.

For `COC(=O)[C@H](CCSC)NC(=O)c1cc(C/C=C/C(N)CS)ccc1-c1ccsc1` (some centres unmarked) [PM192], the IC50 (FTase) was 0.28 µM, the IC50 (GGTase) was 3.79 µM and the IC50 [1, 2] was 0.23 µM.

`CSCC[C@H](NC(=O)C(/C=C/[C@@H](/C=C/C(N)CS)C(C)C)C(C)C)C(=O)N(C)Cc1ccccn1` (some centres unmarked) [PD072] was tested, and the IC50 (FTase) was 0.042 µM, the IC50 (GGTase) was 0.68 µM and the IC50 [1, 2] was 7.4 µM.

For `COC(=O)[C@H](CCS(C)(=O)=O)NC(=O)C(Cc1cccs1)N(C)C[C@@H](/C=C/C(N)CS)C(C)C` (some centres unmarked) [PA021], the IC50 (FTase) was 0.028 µM, the IC50 (GGTase) was 7.1 µM and the IC50 [1, 2] was 0.08 µM.

Compound `CC(C)[C@@H](/C=C\C(Cc1ccccc1)C(=O)NC(CCC(N)=O)C(=O)O)/C=C/C(N)CS` (some centres unmarked) [PD301] has an IC50 (FTase) of 0.002 µM, an IC50 (GGTase) of 0.0037 µM and an IC50 [1, 2] of 4.5 µM.
